# Measurements taken from US4626271A, “Cyanobacterin herbicide” (priority 1985, dated 1986).
# Where “and” joins values, the source holds several entries; their conditions need not be identical. Equal values may be shown once.
# Columns and labels:
# [1] = test system: Lemna gibba, L.minor and Lemna 6746 (Duckweed); experiment: Use against aquatic plants (frond multiplication, toxicity); type: in vivo
# Procedure: The effect of cyanobacterin was initially tested on the aquatic angiosperms, Lemna gibba, L.minor and Lemna 6746 (Duckweed). Cyanobacterin stopped frond multiplication at a minimum dose of 0.5 μg per ml of growth medium (1.1 μM). The plants recovered after about 7-12 days. Presumably, this is due to degradation of the cyanobacterin over time which drops the dosage below the minimum. At a concentration of 1.0 μg/ml (2.3 μM), cyanobacterin is toxic to Lemna. The plants generally appear normal for 10-15 days after which the roots fall off and the leaves become chlorotic.
# [2] = test system: Zea Mays of the hybrid variety Goldencross Bantam; experiment: Spray treatment of sweet corn; type: in vivo; conditions: 1.0 milligrams, Example I composition
# Procedure: (§1) 10 mg of cyanobacterin dissolved in lml. of ethyl ether was mixed with 0.1 ml of the Science "Sticker" of Science Products, Co., which contains about 77% Triton B-1956 brand surfactant. 10 ml of water was added and mixed. After mixing for about 30 minutes to allow the ether to evaporate, the composition was ready to apply to plants.
# (§2) A variety of green plants were treated with a cyanobacterin solution prepared in accordance with Example I above. An atomizer was used to spray the plants with a fine spray. Before placing the fluid into an atomizer, the solution was measured and then remeasured after application on the plants.
# (§3) A control solution of 0.1 ml of sticker-ether in 10 ml of distilled water was applied to the control plants. These plants were treated in the same manner as in the cyanobacterin application and measured in the same way. Plants were cut off at the soil line and dried for 16 hours at 110° C.
# Zea Mays of the hybrid variety Goldencross Bantam was tested with one plant per pot. A total of nine control plants were used and 14 plants were treated with the cyanobacterin composition of Example I. The plants were treated once, 8 days after germination. After growing for a total of 15 days after treatment, the plants were cut off at the soil line and the dry weight was determined. A control plant dry weight was 227.4 milligrams and the cyanobacterin treated plant dry weight was 59.4 milligrams. The amount of cyanobacterin utilized was 1.0 milligrams.
# [3] = test system: Pisum sativum, var. Little Marvel; experiment: Spray treatment of pea; type: in vivo
# Procedure: as §1, §2, §3
# Pisum sativum, var. Little Marvel, plants were tested at a rate of 1 and 2 plants per pot. With one plant per pot, a total of nine control plants were used and 12 cyanobacterin treated plants were utilized. With 2 plants per pot, one control plant was utilized and 2 cyanobacterin treated plants were utilized. The plants were treated 8 and 6 days after germination respectively, with the cyanobacterin compound of Example I. The pots containing 1 plant per pot were treated with 1.5 milligrams and the pots containing 2 plants were treated with 0.6 milligrams of the cyanobacterin compound. The control plant dry weight of a single plant per pot plants after the fifteen days of growth was 363.8 milligrams and 194.9 milligrams for the cyanobacterin treated plant dry weight.
# [4] = test system: Rumex crispus; experiment: Spray treatment of curled dock; type: in vivo; conditions: for treated plant dry weight: fifteenth day
# Procedure: as §1, §2, §3
# Rumex crispus was grown at a rate of 10 plants or more per pot. A total of 5 control pots were used and 5 pots were treated with the cyanobacterin containing compound of Example I. Seven days after germination the plants were treated with 1.45 milligrams of cyanobacterin. […] By the 9th day, half the plants were dead and half were chlorotic. […] The control plant dry weight at the fifteenth day was 453.3 milligrams and the cyanobacterin dry weight was 93.1 milligrams.
# Curled dock plants were also treated with 0.5 milligrams of cyanobacterin. The plants were treated with the cyanobacterin compound 8 days after germination. On the 7th day after treatment, many of the plants were dead and others were chlorotic.
# [5] = test system: Polygonium convolvulus; experiment: Spray treatment of wild buckwheat; type: in vivo; conditions: for treated plant dry weight: fifteenth day
# Procedure: as §1, §2, §3
# Polygonium convolvulus plants were raised at a rate of over 10 plants per pot. Five control pots were used and 5 pots were treated with the cyanobacterin containing compound of the invention.
# The first plants treated were treated 2 days after germination with 0.29 milligrams of the cyanobacterin. The control plant dry weight at the fifteenth day was 92.4 milligrams and the cyanobacterin treated dry weight was 59.1 milligrams. The second group of plants were treated 4 days after germination with 0.5 milligrams of cyanobacterin.
# [6] = test system: Avena fatua; experiment: Spray treatment of wild oats; type: in vivo
# Procedure: as §1, §2, §3
# Avena fatua plants were grown at a rate of over 10 plants per pot. A total of 5 control pots were used and 5 cyanobacterin treated pots were utilized.
# Three separate concentrations of cyanobacterin were utilized. In group 1 the plants were treated 3 days after germination with 0.44 milligrams of the cyanobacterin. […] A second group were treated with 0.6 milligrams of cyanobacterin two weeks after germination. […] The third group of plants were treated with 1.05 milligrams of cyanobacterin 7 days after germination.
# [7] = test system: Setaria viridis; experiment: Spray treatment of green foxtail; type: in vivo; conditions: for treated plant dry weight: fifteenth day
# Procedure: as §1, §2, §3
# Setaria viridis plants were grown at a rate of over 10 per pot. A total of 5 control pots were used and 5 cyanobacterin treated pots were utilized. Two concentrations of cyanobacterin were utilized. In the first group 0.5 milligrams of cyanobacterin was applied to plants 8 days after germination. The control plant dry weight on the fifteenth day after cutting was 365.8 milligrams and the cyanobacterin treated plant dry weight was 176.3 milligrams. A second group of plants was treated with 2.8 milligrams of cyanobacterin 7 days after germination.
# [8] = Application to the soil; type: in vivo
# Description: (§4) Cyanobacterin, when applied to the soil had no effect. […] Also, it may not be transported through the root vascular system. The Hill reaction is inhibited by cyanobacterin as shown by the use of photosynthetically active pea chloroplasts.
# [9] = test system: photosystem II; experiment: Hill reaction / oxygen evolution in pea chloroplasts; type: biochemical
# Description: It is theorized that cyanobacterin acts on green plants by specifically binding to some component of the photosynthetic electron transport system.
# as §4
# [10] = Hydrophobicity; type: physicochemical
# [11] = Herbicidal effect, amount relative to plant dry weight; type: in vivo; conditions: by dry weight
# Description: The composition may be formulated from high purity cyanobacterin or from crude extracts obtained from the blue-green algae since high purity is not required. […] Additionally, the composition may be formulated from a synthetic cyanobacterin, such as the racemic mixture described by T. T. Jong et al, "Total synthesis and X-ray structure determination of cyanobacterin", J. Org. Chem. 49:735-736(1984).
# [12] = test system: cyanobacterial spheroplast system; experiment: Activity in a cyanobacterial spheroplast system; type: cell-based
# Description: (§5) Synthetic cyanobacterin such as the racemic mixture prepared by Jong T. T. et al in J. Org.
# [13] = test system: whole cell growth; experiment: Whole cell growth measurements, long term studies; type: cell-based
# Description: as §5
# [14] = test system: cell growth; experiment: Biological activity / cell growth of the anhydro analog; type: cell-based
# Description: The cyanobacterin used in this invention may be obtained from Scytonema hofmanni (UTEX 2349 University of Texas Collection, Austin, Tex.) cells. Cyanobacterin is a diaryl substituted gamma-ylidene, gamma-butyro lactone with a chlorine substituent on one of the aromatic rings. […] This compound results from dehydration of the parent compound: [drawing 1]
# It has been postulated by the inventor that a hydrophilic constituent on the lactone ring is crucial to the activity of cyanobacterin and may be involved in protein binding.
structure (smiles),measurement,setting,value
COc1ccc(/C=C2\OC(=O)C(Cc3cc(Cl)c4c(c3)OCO4)C2(O)C(C)C)cc1 (stereo not drawn) [cyanobacterin],plant condition by 30 days,"[1]; 1.0 μg/ml or greater, purified cyanobacterin",most plants treated with 1.0 μg/ml or greater concentrations of purified cyanobacterin were dead
same,time until plants recovered,[1]; at minimum dose 0.5 μg per ml,7 to 12 days
same,minimal effective concentration,"[1]; in growth medium, read-out: minimum dose that stopped frond multiplication",0.5 µg/mL and 1.1 µM
same,plant condition by the fifteenth day,[2],dead
same,plant condition on the ninth day after treatment,[2],no new growth
same,treated plant dry weight,"[2]; treated once 8 days after germination, 15 days after treatment, control 227.4 milligrams",59.4 milligrams
same,plant condition on the 15th day,[3]; 0.6 to 1.5 milligrams per plant,all of the cyanobacterin treated plants were dead
same,treated plant dry weight,"[3]; 1 plant per pot, 1.5 milligrams, treated 8 days after germination, fifteen days of growth, control 363.8 milligrams",194.9 milligrams
same,treated plant dry weight,"[3]; 2 plants per pot, 0.6 milligrams, treated 6 days after germination, control 169.8 milligrams",101.4 milligrams
same,plant condition by the 15th day,[4]; 0.5 milligrams,"half of the plants were dead, one-quarter were chlorotic and one-quarter were large, green and healthy like the control"
same,treated plant dry weight,"[4]; 0.5 milligrams, 8 days after germination, control 451.9 milligrams",239.1 milligrams
same,plant condition by the 15th day,[4]; 1.45 milligrams,all were dead except for a few
same,treated plant dry weight,"[4]; 1.45 milligrams, seven days after germination, control 453.3 milligrams",93.1 milligrams
same,treated plant dry weight,"[5]; 0.29 milligrams, 2 days after germination, control 92.4 milligrams",59.1 milligrams
same,treated plant dry weight,"[5]; 0.5 milligrams, 4 days after germination, control 157.8 milligrams",59.1 milligrams
same,plant condition by the 15th day,[5]; either concentration (0.29 or 0.5 milligrams),Only a few of the cyanobacterin treated plants were dead
same,treated plant dry weight,"[6]; 0.44 milligrams, 3 days after germination, fifteen days after treatment, control 154.6 milligrams",115.5 milligrams
same,plant condition at the end of the experiment,[6]; 0.44 to 1.05 milligrams,stressed but overall were still green and growing
same,treated plant dry weight,"[6]; 0.6 milligrams, two weeks after germination, fifteen days after treatment, control 328.5 milligrams",79.5 milligrams
same,treated plant dry weight,"[6]; 1.05 milligrams, 7 days after germination, fifteenth day, control 489.6 milligrams",155.8 milligrams
same,treated plant dry weight,"[7]; 0.5 milligrams, 8 days after germination, control 365.8 milligrams",176.3 milligrams
same,plant condition at approximately the 9th day after treatment,[7]; 0.5 or 2.8 milligrams,approximately half of the plants had died
same,treated plant dry weight,"[7]; 2.8 milligrams, 7 days after germination, control 411.7 milligrams",217.7 milligrams
same,effect when applied to the soil,[8],no effect
same,electron flow from water to electron acceptors,[9],inhibits electron flow
same,Hill reaction,[9]; photosynthetically active pea chloroplasts,inhibited
same,concentration that completely inhibits oxygen evolution,"[9]; photosynthetically active pea chloroplasts, in the presence of DCPIP",110 nM
same,hydrophobicity,[10],very hydrophobic
same,amount effective as a herbicide relative to plant dry weight,[11],one part of the cyanobacterin to 450 parts of the plant
COc1ccc(/C=C2\OC(=O)C(Cc3cc(Cl)c4c(c3)OCO4)C2(O)C(C)C)cc1 (racemic) [Synthetic cyanobacterin],activity relative to cyanobacterin,[12],about half the activity of cyanobacterin
same,activity relative to cyanobacterin,[13],the same activity
COc1ccc(/C=C2\OC(=O)C(Cc3cc(Cl)c4c(c3)OCO4)=C2C(C)C)cc1 [anhydrocyanobacterin],biological activity,[14],no biological activity
same,effect on cell growth,[14],no effect on cell growth
